Laboratory results reported in ChEMBL document CHEMBL3797040, “Withanolides derived from Physalis peruviana (Poha) with potential anti-inflammatory activity” (Bioorg Med Chem Lett, 2016).

How the values were obtained:
[1] = Inhibition of TNFalpha-activated nuclear factor-kappa B activity (unknown origin) expressed in HEK293 cells incubated for 6 hrs by luciferase reporter gene based assay; assay type: cell-based; conditions: Homo sapiens, HEK293, 6 h
[2] = Toxicity against HEK293 cells assessed as cell survival at 50 uM; assay type: cell-based; conditions: human, read-out: Survival
RAW264.7 [3] = test: Inhibition of lipopolysaccharide-induced nitric oxide production in mouse RAW264.7 cells pre-incubated for 30 mins before LPS stimulation for 20 hrs by Griess reagent based assay; assay type: functional, cell-based
HEK293 = test: Inhibition of TNFalpha-activated nuclear factor-kappa B activity (unknown origin) expressed in HEK293 cells at 50 uM incubated for 6 hrs by luciferase reporter gene based assay; assay type: cell-based; conditions: Homo sapiens
[4] = Toxicity against mouse RAW264.7 cells assessed as cell survival at 50 uM by SRB assay; assay type: cell-based; conditions: read-out: Survival
RAW264.7 [5] = test: Inhibition of lipopolysaccharide-induced nitric oxide production in mouse RAW264.7 cells at 50 uM pre-incubated for 30 mins before LPS stimulation for 20 hrs by Griess reagent based assay; assay type: functional

Row | SMILES | IC50 [1] | viability at 50 µM [2] | IC50 (RAW264.7 [3]) | inhibition (HEK293) | viability at 50 µM [4] | inhibition at 50 µM (RAW264.7 [5])
1 | CC1=C(C)C(=O)O[C@@H]([C@](C)(O)[C@]2(O)CC[C@@]3(O)[C@@H]4[C@@H](O)[C@@H](O)[C@@]5(O)CC=CC(=O)[C@]5(C)[C@H]4CC[C@]23C)C1 | 24.6 µM | 98.4% | 44.6 µM | 66.9% | 90.4% | 58.3%
2 | CC1=C(C)C(=O)O[C@@H]([C@](C)(O)[C@]2(O)CC[C@@]3(O)[C@@H]4C[C@H]5O[C@]56[C@@H](O)C=CC(=O)[C@]6(C)[C@H]4CC[C@]23C)C1 | 0.04 µM | 88.6% | 0.32 µM | 99.5% | 50.1% | 99.4%
3 | CC1=C(CO)C[C@H]([C@](C)(O)[C@]2(O)CC[C@@]3(O)[C@@H]4C[C@@H](O)[C@@]5(O)CC=CC(=O)[C@]5(C)[C@H]4CC[C@]23C)OC1=O |  | 81.6% |  | 41% | 100% | 7.4%
4 | CNC(=N)NCCC[C@H](N)C(=O)O [TILARGININE] |  |  | 23.5 µM |  |  | 
5 | CC(=O)OC1C[C@H](O)CC2=CC[C@H]3[C@@H]4CC[C@H]([C@@](C)(O)[C@@H](O)C[C@@H]5COC(=O)[C@@H]5C)[C@@]4(C)CC[C@@H]3[C@]21C (some centres undefined) | 1.1 µM | 36.5% | 11.8 µM | 56.1% | 95.3% | 84.2%
6 | CC1=C(C)C(=O)O[C@@H]([C@@](C)(O)[C@]2(O)CC[C@@]3(O)[C@@H]4C[C@@H](O)[C@@]5(O)CC=CC(=O)[C@]5(C)[C@H]4CC[C@]23C)C1 | 31.2 µM | 89.6% |  | 65.8% | 84.1% | 26.4%
7 | CC1=C(C)C(=O)O[C@@H]([C@](C)(O)[C@]2(O)C[C@H](O)[C@@]3(O)[C@@H]4C[C@H](O)[C@@]5(O)CCCC(=O)[C@]5(C)[C@H]4CC[C@@]32C)C1 | 10.4 µM | 83.9% |  | 60.4% | 100% | 47.7%
8 | CC1=C(C)C(=O)O[C@@H]([C@](C)(O)C2=CC[C@@]3(O)[C@@H]4C[C@H]5O[C@]56[C@@H](O)CCC(=O)[C@]6(C)[C@H]4CC[C@]23C)C1 |  | 81.9% | 14.6 µM | 43.7% | 100% | 64.7%
9 | CC(=O)OC1C[C@H](O)CC2=CC[C@H]3[C@@H]4CC[C@H]([C@@](C)(O)[C@@H](O)C[C@@H]5COC(=O)[C@@]5(C)O)[C@@]4(C)CC[C@@H]3[C@]21C (some centres undefined) | 2.1 µM | 73.3% |  | 64.4% | 100% | 3.7%
10 | CC1=C(C)C(=O)O[C@@H]([C@](C)(O)[C@]2(O)CC[C@@]3(O)[C@@H]4C[C@H](O)C5=CC=CC(=O)[C@]5(C)[C@H]4CC[C@]23C)C1 | 5.6 µM | 100% | 2.4 µM | 85% | 79.3% | 99.2%
11 | CC1=C(C)C(=O)O[C@@H]([C@](C)(O)[C@]2(O)CC[C@@]3(O)[C@@H]4C[C@H]5O[C@]56[C@@H](O)[C@@H](O)CC(=O)[C@]6(C)[C@H]4CC[C@]23C)C1 |  | 97.1% | 7.8 µM | 54.1% | 100% | 86%
